IC50 and melting point data for 15 molecules are collected here from paper PMC10892142, “Synthesis and In Vitro Antitumor Activity Evaluation of Gefitinib-1,2,3-Triazole Derivatives” (Molecules, 2024).

One series has as its system NCI-H1299 cells. The experiment in a line: CCK-8 assay, NCI-H1299 cells. It counts as cell-based, human. The conditions noted are these: CCK-8, 48 h, mean ± SD, n = 3. How it is done: (§1) Next, cell viability was determined according to the instructions of the CCK-8 assay. Then, 10 μL CCK-8 solution was added to each well of the plate and incubated for 1–4 h in the incubator. […] The percentage of viable cells was measured using the following formula where three independent experiments were performed: [(A450sample − A450blank)/(A450control − A450blank)] × 100%.
In general terms: Tetrazolium dyes change colour on reduction, which living cells bring about.

For the next series, the system named is NCI-H1437 cells. The experiment in a line: CCK-8 assay, NCI-H1437 cells. The settings on record: CCK-8, 48 h, mean ± SD, n = 3. It counts as cell-based. How it is done:
as §1

The test system of another series is A549 cells. The experiment in a line: CCK-8 assay, A549 cells. Format: cell-based. The conditions noted are these: CCK-8, 48 h, mean ± SD, n = 3. How it is done:
as §1

For another series, the system named is IDO1. The settings on record: read-out: IDO1 inhibitory activity IC50; cited from earlier work.

Consider `COc1cc2ncnc(Nc3cccc(-c4cn(-c5ccccc5Br)nn4)c3)c2cc1OCCCN1CCOCC1` [Compound 4e, N-(3-(1-(2-Bromophenyl)-1H-1,2,3-triazol-4-yl)phenyl)-7-methoxy-6-(3-morpholinopropoxy)quinazolin-4-amine], for which the melting point (usually the temperature, or range, at which the solid turns liquid) was in the range of 175 to 176 °C. Besides, the half-inhibitory concentration (IC50) (usually the midpoint of a concentration-inhibition curve) in the series with NCI-H1299 cells (Homo sapiens, NCI-H1299) turned out to be 11.9 ± 0.32 µM. Moreover, 11.2 ± 0.95 µM corresponded to half-maximal inhibition in the series on NCI-H1437 cells (Homo sapiens, NCI-H1437) (IC50). In the series with A549 cells (Homo sapiens, A549), this molecule had a concentration for half-maximal inhibition (IC50) of 8.62 ± 0.76 µM.
`COc1cc2ncnc(Nc3cccc(-c4cn(Cc5ccc(Br)cc5)nn4)c3)c2cc1OCCCN1CCOCC1` [Compound 4k, N-(3-(1-(4-Bromobenzyl)-1H-1,2,3-triazol-4-yl)phenyl)-7-methoxy-6-(3-morpholinopropoxy)quinazolin-4-amine] came in with a melting point of 177 to 178 °C. Besides, half-maximal inhibition in the series with NCI-H1299 cells (Homo sapiens, NCI-H1299) (IC50) required 7.15 ± 0.12 µM. Besides, in the series with NCI-H1437 cells (Homo sapiens, NCI-H1437), the IC50 turned out to be 5.95 ± 0.72 µM. Inhibition with A549 cells (Homo sapiens, A549) was half-maximal at 8.95 ± 0.99 µM (IC50).
As for `COCCOc1cc2ncnc(Nc3cccc(-c4cn(Cc5ccccc5Br)nn4)c3)c2cc1OCCOC` [compound e], in the series with IDO1, the 50% inhibitory concentration (IC50) is 0.32 ± 0.07 µM.
In turn, `COc1cc2ncnc(Nc3cccc(-c4cn(-c5cccc6c5C(=O)N(C5CCC(=O)NC5=O)C6=O)nn4)c3)c2cc1OCCCN1CCOCC1` (stereo not drawn) [Compound 4j, 2-(2,6-Dioxopiperidin-3-yl)-4-(4-(3-((7-methoxy-6-(3-morpholinopropoxy)quinazolin-4-yl)amino)phenyl)-1H-1,2,3-triazol-1-yl)isoindoline-1,3-dione] yielded a melting point of 187 to 188 °C. The molecule also registered a concentration for half-maximal inhibition (IC50) in the series on NCI-H1299 cells (Homo sapiens, NCI-H1299) of 12 ± 0.33 µM. Also, in the series with NCI-H1437 cells (Homo sapiens, NCI-H1437), the IC50 came out at 6.6 ± 0.07 µM. This molecule also returned an IC50 in the series on A549 cells (Homo sapiens, A549) of 11.4 ± 0.89 µM.
In the case of `Oc1ccc(Cl)cc1-c1cnn[nH]1` [MMG-0358], in the series on IDO1, the IC50 is 0.082 µM.
`COc1cc2ncnc(Nc3cccc(-c4cn(-c5ccccc5Cl)nn4)c3)c2cc1OCCCN1CCOCC1` [Compound 4h, N-(3-(1-(2-Chlorophenyl)-1H-1,2,3-triazol-4-yl)phenyl)-7-methoxy-6-(3-morpholinopropoxy)quinazolin-4-amine] registered a melting point of 167 to 168 °C. Further, the IC50 in the series on NCI-H1299 cells (Homo sapiens, NCI-H1299) worked out at 7.69 ± 0.11 µM. The midpoint of inhibition with NCI-H1437 cells (Homo sapiens, NCI-H1437), the IC50, lay at 3.09 ± 0.13 µM. Further, the IC50 in the series on A549 cells (Homo sapiens, A549) came to 9.81 ± 0.34 µM.
The corresponding values for `COc1cc2ncnc(Nc3cccc(-c4cn(Cc5ccc(F)c(Cl)c5)nn4)c3)c2cc1OCCCN1CCOCC1` [Compound 4a, N-(3-(1-(3-Chloro-4-fluorobenzyl)-1H-1,2,3-triazol-4-yl)phenyl)-7-methoxy-6-(3-morpholinopropoxy)quinazolin-4-amine] are 192 to 193 °C, 7.59 ± 0.19 µM, 2.05 ± 0.03 µM and 6.81 ± 0.33 µM.
As for “7-Methoxy-N-(3-(1-(2-methyl-3-nitrophenyl)-1H-1,2,3-triazol-4-yl)phenyl)-6-(3-morpholinopropoxy)quinazolin-4-amine [Compound 4g]”, the IC50 in the series on NCI-H1299 cells worked out at 6.02 ± 0.12 µM; with NCI-H1437 cells it was 2.15 ± 0.1 µM; in the series with A549 cells, 4.65 ± 0.08 µM.
For the molecule `COc1cc2ncnc(Nc3cccc(-c4cn(Cc5ccc(C)cc5)nn4)c3)c2cc1OCCCN1CCOCC1` [Compound 4n, 7-methoxy-N-(3-(1-(4-methylbenzyl)-1H-1,2,3-triazol-4-yl)phenyl)-6-(3-morpholinopropoxy)quinazolin-4-amine], the melting point is 168 to 169 °C. Further, the IC50 with NCI-H1299 cells (Homo sapiens, NCI-H1299) came out at 5.91 ± 0.44 µM. The same molecule displayed a 50% inhibitory concentration (IC50) in the series on NCI-H1437 cells (Homo sapiens, NCI-H1437) of 5.79 ± 0.88 µM. The IC50 in the series on A549 cells (Homo sapiens, A549) was 10.4 ± 0.82 µM.
On the same counts, the results for `COc1cc2ncnc(Nc3cccc(-c4cn(-c5ccc([N+](=O)[O-])c(C)c5)nn4)c3)c2cc1OCCCN1CCOCC1` [Compound 4f, 7-Methoxy-N-(3-(1-(3-methyl-4-nitrophenyl)-1H-1,2,3-triazol-4-yl)phenyl)-6-(3-morpholinopropoxy)quinazolin-4-amine] are 175 to 176 °C, 13.3 ± 0.52 µM, 9.27 ± 0.4 µM and 13.7 ± 0.71 µM.
On the same counts, the results for `COc1cc2ncnc(Nc3cccc(-c4cn(Cc5ccccc5C#N)nn4)c3)c2cc1OCCCN1CCOCC1` [Compound 4l, 2-((4-(3-((7-Methoxy-6-(3-morpholinopropoxy)quinazolin-4-yl)amino)phenyl)-1H-1,2,3-triazol-1-yl)methyl)benzonitrile] are 167 to 168 °C, 5.43 ± 0.24 µM, 2.23 ± 0.26 µM and 7.53 ± 0.66 µM.
As to `COc1cc2ncnc(Nc3cccc(-c4cn(-c5cccc(F)c5)nn4)c3)c2cc1OCCCN1CCOCC1` [Compound 4i, N-(3-(1-(3-Fluorophenyl)-1H-1,2,3-triazol-4-yl)phenyl)-7-methoxy-6-(3-morpholinopropoxy)quinazolin-4-amine], the IC50 came to 9.35 ± 0.31 µM in the series on NCI-H1299 cells (Homo sapiens, NCI-H1299); 4.77 ± 0.32 µM with NCI-H1437 cells (Homo sapiens, NCI-H1437); 13 ± 0.29 µM with A549 cells (Homo sapiens, A549).
The corresponding values for `COc1cc2ncnc(Nc3cccc(-c4cn(Cc5cc(Br)cc(Br)c5)nn4)c3)c2cc1OCCCN1CCOCC1` [Compound 4m, N-(3-(1-(3,5-Dibromobenzyl)-1H-1,2,3-triazol-4-yl)phenyl)-7-methoxy-6-(3-morpholinopropoxy)quinazolin-4-amine] are 4.79 ± 0.13 µM, 2.53 ± 0.11 µM and 2.39 ± 0.3 µM.
On to `Clc1ccc(Nc2cnn[nH]2)cc1` [Vertex-AT], for which, in the series on IDO1, the IC50 is 0.023 µM.
Take `COc1cc2ncnc(Nc3cccc(-c4cn(-c5ccc(Cl)cc5)nn4)c3)c2cc1OCCCN1CCOCC1` [Compound 4d, N-(3-(1-(4-Chlorophenyl)-1H-1,2,3-triazol-4-yl)phenyl)-7-methoxy-6-(3-morpholinopropoxy)quinazolin-4-amine]: the melting point was 162 to 163 °C. This molecule also came in with a 50% inhibitory concentration (IC50) in the series on NCI-H1299 cells (Homo sapiens, NCI-H1299) of 11.4 ± 0.97 µM. The IC50 in the series with NCI-H1437 cells (Homo sapiens, NCI-H1437) came out at 6.41 ± 0.54 µM. For the same molecule, half-maximal inhibition in the series with A549 cells (Homo sapiens, A549) (IC50) was put at 9.04 ± 0.41 µM.
